Test results published in publication PMC7019173, “Stapled peptide targeting the CDK4/Cyclin D interface combined with Abemaciclib inhibits KRAS mutant lung cancer growth” (Theranostics, 2020).
Values belong to the molecule of their own block, whether it stands above or below them. Where a SMILES comes first, the peptide text is derived from it. Bridges are numbered along the chain shown (N, C = ends). [ ]: non-standard residue; d: D form. S5 = C=CCCC[C@](C)(N)C(=O)O

Tests used:
[1] = tested on: A549 cells; experiment: cells; assay type: cell-based, human; conditions: Homo sapiens, A549; 48 hours, crystal violet, at least two independent experiments (n=4/experiment) ± SD, Grafit; read-out: IC50 A549 cell proliferation
Protocol: Non-small cell lung cancer A549, H358 and PC9 cell lines used in this study. Cell culture media, serum and antibiotics were purchased from Life Technologies. All cell lines were cultured in RPMI + Glutamax supplemented with 10% FCS, 100 units/mL penicillin (G sodium salt) and 100 µg/mL streptomycin at 37 °C in an atmosphere containing 5% CO2. […] Stock solutions of drugs were prepared in DMSO and freshly diluted in PBS to the desired concentration prior to use, then added onto unsynchronized cells cultured to subconfluency (60-70%), which were then further incubated for 24, 48 or 72 h. Cell proliferation was determined by crystal violet assay following treatment with drugs. Cells were washed with PBS, fixed with 3.7% formaldehyde for 10 min and then incubated with 0.1% crystal violet dye for 30 min. After rinsing, crystals were dissolved in 10% acetic acid and viability was determined by measuring absorbance at 595 nm.

[2] = tested on: H358 orthotopic lung tumours; experiment: Antitumour efficacy in mice with orthotopic lung tumour; assay type: in vivo
Protocol: Luciferase-modified human H358 NSCLC cells (H358-Luc cells) were suspended in medium with 10 mM EDTA and 5 mg/mL Matrigel (BD Biosciences) at 5.10^6 cells/50 μL. Six-week-old female NMRI nude mice (Janvier, Le Genest, Saint Isle, France) were anesthetized (isoflurane/air 4% for induction and 1.5% thereafter), and cells were inoculated in the lungs via the airways as previously described, [48]. Non-invasive in vivo bioluminescence imaging (IVIS Kinetic, Perkin-Elmer) was used 10 min after the intraperitoneal injection of 10 mg/mL D-Luciferin (Promega, Charbonnières, France) to monitor the quality of the implantation and to follow orthotopic growth, [48]. […] Five weeks after the inoculation of H358-Luc cells, when bioluminescent orthotopic tumours were detected, nude mice were randomly divided into 6 groups. […] To determine proliferative index, total and Ki67 positive tumour epithelial cells were scored on two to eight fields per mouse in three or four mice per group, and reported as percentage of Ki67 positive cells. […] Total and p-RB positive tumour epithelial cells were scored on two to twenty-nine fields per mouse in three or four mice per group, and reported as percentage of p-RB positive cells in each field and each treatment group.

[3] = tested on: A549 cells; experiment: Flow cytometry cell cycle analysis; assay type: cell-based, human; conditions: 24 h, Abemaciclib 0.5 and 5 µM, Ctrl stapled peptide 10 µM, P2short 1 or 10 µM
Protocol: Cells were trypsinized and fixed in 70% ice cold ethanol, washed in PBS and resuspended in PBS-1% BSA-50 mM citrate with 25 µg/mL RNase A for 15 min at 37 °C, supplemented with 25 µg/mL of propidium iodide for 30 min at room temperature. For each condition 20000 events were analysed by Gallios (Beckman Coulter) and data analysis was performed using FlowJo Software.

[4] = target: T1, GST-cyclin D1 (Homo sapiens, UniProt P24385); experiment: Fluorescence titration of TP2-Rho-labelled peptides with GST-cyclin D1; assay type: binding; conditions: 200 nM TP2-Rho labelled peptide titrated with GST-cyclin D1, PBS, 30 °C, average of n = 3 to 5 ± SD
T1 construct: made in house; host or cells: E. coli
Protocol: (§1) TP2-Rho-labelled peptides: peptides were labelled on a unique cysteine residue with a five-fold molar excess of TP2-Rho-maleimide overnight, and then purified from free dye on NAP-5 columns (GE Healthcare), as described previously.
Recombinant GST-CDK4 and GST-cyclin D1 were expressed in E. coli by IPTG induction and purified by FPLC chromatography as described previously.
(§2) Fluorescence titration assays were performed in 96-well plates in a thermostated chamber (Clariostar spectrofluorimeter, BMG) at 30 °C in 200 μL phosphate buffer saline using 200 nM fluorescently-labelled peptides or proteins. The fluorescence emission intensity of TP2-Rho-labelled peptides was recorded at 614 nm following excitation at 510 nm. The fluorescence emission intensity of mant-ATP was measured at […]. Data analysis was performed using the GraFit Software (Erathicus Ltd) and curve fitting was performed using a quadratic equation, as described previously. Experiments were performed in triplicate, and Kd values represent the average calculated for n = 3 to 5 experiments, together with standard deviation.

[5] = target: C4D peptide derived from the alpha 5 helix of cyclin D1 (Homo sapiens, UniProt P24385); experiment: Fluorescence titration of TP2-Rho-labelled C4D peptide with CDK4 C helix-derived peptides; assay type: binding; conditions: 200 nM TP2-Rho labelled C4D peptide, PBS, 30 °C, average of n = 3 to 5 ± SD
Protocol: as §1, §2

[6] = Circular dichroism, determination of alpha helical content; assay type: physicochemical
Protocol: CD experiments were carried out using a Jasco J815 spectropolarimeter. Spectra were recorded with 100 μM of peptides dissolved in phosphate buffer 50 mM, pH 7, using a 1 mm pathlength CD cuvette at 20 °C, over a wavelength range of 190-260 nm. Continuous scanning mode was used, with a response of 1.0 s with 0.1 nm steps and a bandwidth of 2 nm. The signal to noise ratio was improved by acquiring each spectrum over an average of two scans. Baseline was corrected by subtracting the background from the sample spectrum.
Alpha helical content was determined using the following equation: % Helix = ([θ])obs * 100)/(-39500 * (1-2.57/n), where ([θ])obs is the mean residue ellipticity at 222 nm and n the number of peptide bonds.

[7] = circular dichroism; conditions: 50 mM phosphate buffer; pH 7; 20 °C; 100 uM
[8] = Solubility of stapled peptides; assay type: physicochemical

T1 sequence (P24385 whole entry): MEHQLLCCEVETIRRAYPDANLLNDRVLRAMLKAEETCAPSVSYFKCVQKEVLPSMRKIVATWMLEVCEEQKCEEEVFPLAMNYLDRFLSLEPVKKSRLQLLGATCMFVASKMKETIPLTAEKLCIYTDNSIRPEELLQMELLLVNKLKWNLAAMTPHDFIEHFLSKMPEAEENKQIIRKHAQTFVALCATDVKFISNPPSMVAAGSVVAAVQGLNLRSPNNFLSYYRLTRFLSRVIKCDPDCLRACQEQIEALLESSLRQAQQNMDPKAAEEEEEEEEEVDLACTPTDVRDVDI
C4D peptide derived from the alpha 5 helix of cyclin D1, sequence (P24385 whole entry): as above

IC50 [1]: 2720 ± 2210 nM
Structure (SMILES): CCN1CCN(Cc2ccc(Nc3ncc(F)c(-c4cc(F)c5nc(C)n(C(C)C)c5c4)n3)nc2)CC1 [Abemaciclib]
effect on H358 orthotopic tumour growth, single agent ([2]; bioluminescence, 3 weeks, Abemaciclib 10 mg/kg daily oral, P2shortA 0.45 mg/kg intrapulmonary 2 times a week, n=10): slightly reduced tumour growth | Ki67 or pRb levels in tumours, single agent ([2]; intrapulmonary P2shortA or Abemaciclib alone, immunohistochemistry): did not reduce Ki67 or pRb levels | effect on the cell cycle (proportion of cells in G1) [3]: significantly increased the proportion of cells in G1

Kd [4]: 43 ± 24 nM | Kd [5]: 83 ± 45 nM | % helix (alpha helical content) ([6]; CD, 100 μM peptide in phosphate buffer 50 mM, pH 7, 20 °C, from mean residue ellipticity at 222 nm): 7% | helicity upon addition of 25% TFE ([6]; CD, phosphate buffer with 25% TFE): 46% | conformation in solution (CD) ([6]; phosphate buffer): disordered
Structure (SMILES): CC[C@H](C)[C@H](NC(=O)[C@@H]1CCCN1C(=O)[C@@H](N)CS)C(=O)N[C@@H](CO)C(=O)N[C@H](C(=O)N[C@H](C(=O)N[C@@H](CCCNC(=N)N)C(=O)N[C@@H](CCC(=O)O)C(=O)N[C@H](C(=O)N[C@@H](C)C(=O)N[C@@H](CC(C)C)C(=O)N[C@@H](CC(C)C)C(=O)N[C@@H](CCCNC(=N)N)C(=O)N[C@@H](CCCNC(=N)N)C(=O)N[C@@H](CC(C)C)C(=O)N[C@@H](CCC(=O)O)C(=O)N[C@@H](C)C(=O)N[C@@H](Cc1ccccc1)C(=O)N[C@@H](CCC(=O)O)C(N)=O)C(C)C)C(C)C)[C@@H](C)O [CDK4 C peptide] (H-CPISTVREVALLRRLEAFE-NH2)
helicity [7]: 7%

solubility [8]: poorly soluble
Structure (SMILES): CC[C@H](C)[C@H](NC(=O)[C@@H]1CCCN1C(=O)[C@H](CC(C)C)NC(=O)CNC(C)=O)C(=O)N[C@@H](CO)C(=O)N[C@H](C(=O)N[C@H](C(=O)N[C@@H](CCCNC(=N)N)C(=O)N[C@@H](CCC(=O)O)C(=O)N[C@H](C(=O)N[C@@H](C)C(=O)N[C@@H](CC(C)C)C(=O)N[C@@]1(C)CCCC=CCCC[C@@](C)(C(=O)N[C@@H](C)C(=O)N[C@@H](Cc2ccccc2)C(=O)N[C@@H](CCC(=O)O)C(N)=O)NC(=O)[C@H](CC(C)C)NC(=O)[C@H](CCCNC(=N)N)NC(=O)[C@H](CCCNC(=N)N)NC1=O)C(C)C)C(C)C)[C@@H](C)O [P3] (Ac-GLPISTVREVAL[S5]RRL[S5]AFE-NH2; staple 13-17)
